Source: ChEMBL document CHEMBL3526036, “Hepatic pharmacokinetics of cationic drugs in a high-fat emulsion-induced rat model of nonalcoholic steatohepatitis” (Drug Metab Dispos, 2011)

Assays:
[1] = Extraction ratio of the compound in perfused liver of high-fat emulsion-induced nonalcoholic steatohepatitis Wistar rat at 4 mM after 10 mins; type: ADME, tissue-based; settings: read-out: ERH
Liver [2] = assay: Mean transit time of the compound in perfused liver of high-fat emulsion-induced nonalcoholic steatohepatitis Wistar rat at 4 mM after 10 mins; type: ADME, tissue-based; settings: 4000 µM
Liver [3] = assay: Apparent distribution ratio of the compound in healthy Wistar rat perfused liver at 4 mM after 10 mins; type: ADME, tissue-based; settings: 4000 µM
[4] = Octanol-water apparent partition coefficient, logD of the compound at pH 7.4; type: physicochemical
Liver [5] = assay: Apparent distribution ratio of the compound in perfused liver of high-fat emulsion-induced nonalcoholic steatohepatitis Wistar rat at 4 mM after 10 mins; type: ADME, tissue-based; settings: 4000 µM
[6] = Extraction ratio of the compound in healthy Wistar rat perfused liver at 4 mM after 10 mins; type: ADME, tissue-based; settings: read-out: ERH
Liver [7] = assay: Mean transit time of the compound in healthy Wistar rat perfused liver at 4 mM after 10 mins; type: ADME, tissue-based; settings: 4000 µM
[8] = Dissociation constant, pKa of the compound; type: physicochemical
Liver [9] = assay: Drug distribution in healthy Wistar rat perfused liver assessed as equilibrium amount ratio charactering fast binding process at 6 mM after 10 mins; type: ADME, tissue-based; settings: in vivo, 6000 µM
in vitro [10] = settings: Wistar, rat, perfused liver
Description: Extraction ratio of the compound in healthy Wistar rat perfused liver at 6 mM after 10 mins

Liver [11] = assay: Apparent distribution ratio of the compound in perfused liver of high-fat emulsion-induced nonalcoholic steatohepatitis Wistar rat at 6 mM after 10 mins; type: ADME, tissue-based; settings: 6000 µM
Liver [12] = assay: Drug distribution in healthy Wistar rat perfused liver assessed as equilibrium amount ratio charactering slow binding process at 6 mM after 10 mins; type: ADME, tissue-based; settings: in vivo, 6000 µM
Liver [13] = assay: Apparent distribution ratio of the compound in healthy Wistar rat perfused liver at 6 mM after 10 mins; type: ADME, tissue-based; settings: 6000 µM
Liver [14] = assay: Mean transit time of the compound in perfused liver of high-fat emulsion-induced nonalcoholic steatohepatitis Wistar rat at 6 mM after 10 mins; type: ADME, tissue-based; settings: 6000 µM
Liver [15] = assay: Drug distribution in perfused liver of high-fat emulsion-induced nonalcoholic steatohepatitis Wistar rat assessed as equilibrium amount ratio charactering slow binding process at 6 mM after 10 mins; type: ADME, tissue-based; settings: in vivo, 6000 µM
in vitro [16] = settings: Wistar, rat, perfused liver; remark: listed apart in the source
Description: Extraction ratio of the compound in perfused liver of high-fat emulsion-induced nonalcoholic steatohepatitis Wistar rat at 6 mM after 10 mins

Liver [17] = assay: Mean transit time of the compound in healthy Wistar rat perfused liver at 6 mM after 10 mins; type: ADME, tissue-based; settings: 6000 µM
Liver [18] = assay: Drug distribution in perfused liver of high-fat emulsion-induced nonalcoholic steatohepatitis Wistar rat assessed as equilibrium amount ratio charactering fast binding process at 6 mM after 10 mins; type: ADME, tissue-based; settings: in vivo, 6000 µM
Liver [19] = assay: Apparent distribution ratio of the compound in perfused liver of high-fat emulsion-induced nonalcoholic steatohepatitis Wistar rat at 3 mM after 10 mins; type: ADME, tissue-based; settings: 3000 µM
Liver [20] = assay: Drug distribution in healthy Wistar rat perfused liver assessed as equilibrium amount ratio charactering slow binding process at 3 mM after 10 mins; type: ADME, tissue-based; settings: in vivo, 3000 µM
Liver [21] = assay: Mean transit time of the compound in perfused liver of high-fat emulsion-induced nonalcoholic steatohepatitis Wistar rat at 3 mM after 10 mins; type: ADME, tissue-based; settings: 3000 µM
Liver [22] = assay: Mean transit time of the compound in healthy Wistar rat perfused liver at 3 mM after 10 mins; type: ADME, tissue-based; settings: 3000 µM
Liver [23] = assay: Drug distribution in perfused liver of high-fat emulsion-induced nonalcoholic steatohepatitis Wistar rat assessed as equilibrium amount ratio charactering slow binding process at 8 mM after 10 mins; type: ADME, tissue-based; settings: in vivo, 8000 µM
Liver [24] = assay: Mean transit time of the compound in healthy Wistar rat perfused liver at 8 mM after 10 mins; type: ADME, tissue-based; settings: 8000 µM
Liver [25] = assay: Drug distribution in perfused liver of high-fat emulsion-induced nonalcoholic steatohepatitis Wistar rat assessed as equilibrium amount ratio charactering fast binding process at 8 mM after 10 mins; type: ADME, tissue-based; settings: in vivo, 8000 µM
Liver [26] = assay: Drug distribution in healthy Wistar rat perfused liver assessed as equilibrium amount ratio charactering fast binding process at 8 mM after 10 mins; type: ADME, tissue-based; settings: in vivo, 8000 µM
Liver [27] = assay: Drug distribution in healthy Wistar rat perfused liver assessed as equilibrium amount ratio charactering slow binding process at 8 mM after 10 mins; type: ADME, tissue-based; settings: in vivo, 8000 µM
Liver [28] = assay: Apparent distribution ratio of the compound in healthy Wistar rat perfused liver at 8 mM after 10 mins; type: ADME, tissue-based; settings: 8000 µM
Liver [29] = assay: Apparent distribution ratio of the compound in perfused liver of high-fat emulsion-induced nonalcoholic steatohepatitis Wistar rat at 8 mM after 10 mins; type: ADME, tissue-based; settings: 8000 µM
Liver [30] = assay: Mean transit time of the compound in perfused liver of high-fat emulsion-induced nonalcoholic steatohepatitis Wistar rat at 8 mM after 10 mins; type: ADME, tissue-based; settings: 8000 µM

`Cc1cc(=O)n(-c2ccccc2)n1C` [ANTIPYRINE] gave a hepatic extraction ratio at 10 min, 4000 µM [1] of 0.08, an MTT (Liver [2]) of 64.12 s and a K (Liver [3]) of 2.67. The logD ([4]; read-out: LogD7.4) was 0.33, the K (Liver [5]) was 4.5 and the hepatic extraction ratio at 10 min, 4000 µM [6] was 0.16. The MTT (Liver [7]) was 46.46 s and the pKa [8] was 1.45.
`CC(C)NCC(O)COc1ccc(CC(N)=O)cc1` (stereo unspecified) [ATENOLOL] showed an MTT (Liver [2]) of 18.63 s, a K (Liver [3]) of 9.9 and a K (Liver [5]) of 12.51. It also gave an MTT (Liver [7]) of 13.12 s.
For `CC(CCc1ccccc1)NCC(O)c1ccc(O)c(C(N)=O)c1` (stereo unspecified) [LABETALOL], the K (Liver [9]) was 1.08, the hepatic extraction ratio at 10 min, 6000 µM (in vitro [10]) was 0.86 and the LogD7.4 [4] was 2.69. The K (Liver [11]) was 10.94, the K (Liver [12]) was 6.78 and the K (Liver [13]) was 6.45. The MTT (Liver [14]) was 33.98 s, the K (Liver [15]) was 11.81 and the hepatic extraction ratio at 10 min, 6000 µM (in vitro [16]) was 0.79. It also gave an MTT (Liver [17]) of 29.1 s and a K (Liver [18]) of 1.94.
Work on `COCCc1ccc(OCC(O)CNC(C)C)cc1` (stereo unspecified) [METOPROLOL] yielded a K (Liver [19]) of 11.97, a LogD7.4 [4] of 1.79 and a K (Liver [20]) of 2.27. It also gave an MTT (Liver [21]) of 67.43 s and an MTT (Liver [22]) of 60.26 s.
In the case of `CC(C)NCC(O)COc1cccc2ccccc12` (stereo unspecified) [PROPRANOLOL], the K (Liver [23]) is reported as 5.35, the MTT (Liver [24]) is reported as 58.14 s and the K (Liver [25]) is reported as 0.38. It also gave a K (Liver [26]) of 1.96, a K (Liver [27]) of 13.59 and a K (Liver [28]) of 10.76. For the same compound, the K (Liver [29]) was 16.31 and the MTT (Liver [30]) was 70.99 s.
